Data reported in patent US4190725A, “5,6-Diaryl-1,2,4-triazines” (Eli Lilly and Company, priority 1978, dated 1980).

The molecules below were run on Erythemic response (assay: Erythemic response inhibition, UV-exposed guinea pig skin (modified method of Winder), topical). Details: dose 100 mcg./12 cm.^2, in 0.1 cc. ethanol, groups of four.
Assay type: in vivo, Albino guinea pigs
Description: A modification of the method of Winder was used to measure the anti-inflammatory activites of the compounds of the present invention; see C. V. Winder, et al., Arch. Int. Pharmacodyn., 116, 261 (1958). Albino guinea pigs of either sex, weighing 225-300 grams, were shaved on the back and chemically depilated (Nair® Lotion Hair Remover, Carter Products, N.Y., N.Y.) 18-20 hours before exposure to ultraviolet light. The animals, in groups of four and bearing identifying ear tags, were treated by applying to an area of skin of about 12 cm.^2 a solution of test compound dissolved in 0.1 cc. of ethanol. The control treatment consisted of administering only the drug vehicle, ethanol, to a group of four animals. Groups of four animals each were given different treatment levels of test compound to obtain dose responses. Random order and blind administration of the test compounds were employed; drug identification was not made until after all animals were graded. Immediately prior to drug application, the animals were exposed in groups of four to a high-intensity ultraviolet light for a measured period of time (usually 4-7 seconds). The ultraviolet light source, a Hanovia Lamp (Kroymayer-Model 10), was placed in contact with the skin of the animal's back. A gummed notebook paper reinforcement was affixed to the lamp lens to provide an unexposed area of contrast for grading the erythema. Beginning one hour after exposure and thereafter at half-hour intervals for another 11/2 hours, the degree of resulting erythema was graded by an arbiturary scoring system based upon the degree of contrast and redness formed. Anti-inflammatory agents delay the development of the erythema and usually have their greatest effect at the initial grading periods. The scores were, therefore, weighted by factors of 4, 3, 2, and 1 at the 1.0, 1.5, 2.0, and 2.5 hour scoring times, respectively. The erythema was graded as follows: […]
______________________________________
Score Appearance of Exposed Area
0 No redness and no contrast
1 Slight redness with a faint
2 Slight to moderate redness
with a distinct outline
3 Marked redness with a distinct
Total scores from each treatment group of four guinea pigs were compared to the control treatment, and the percent inhibition was calculated as follows: [formula]
A dose-response graph was obtained by plotting dose versus percent inhibition, the points representing the average of each treatment group of four guinea pigs. The dose (ED50) in micrograms per 12 cm.^2 (mcg./12 cm.^2) which produced a 50% inhibition of the erythemic response for the particular compound tested was obtained in several instances by extrapolation. Table I below summarizes the results obtained from testing representative compounds of the invention by the foregoing method. The plotted or calculated ED50 for the particular compound tested, where available, is given in the last column of Table I.

Row | SMILES | Inhibition % (% Inhibition compared with control) [%]
1 | COc1ccc(-c2nnc(SCc3ccccc3)nc2-c2ccc(OC)cc2)cc1 [CH2 C6 H5 S 1 OCH3 OCH3, 3-benzylthio-5,6-bis(4-methoxyphenyl)-1,2,4-triazine] | 49
2 | COc1ccc(-c2nnc(SC(C)C)nc2-c2ccc(OC)cc2)cc1 [CH(CH3)2 S 1 OCH3 OCH3, 3-isopropylthio-5,6-bis(4-methoxyphenyl)-1,2,4-triazine] | 35

Same assay, conditions: in 0.1 cc. ethanol, 12 cm.^2 skin, groups of four, plotted or calculated, in several instances by extrapolation

Row | SMILES | ED50 (dose which produced a 50% inhibition of the erythemic response) [mcg./12 cm.^2]
3 | COc1ccc(-c2nnc(OC)nc2-c2ccc(OC)cc2)cc1 [CH3 O 1 OCH3 OCH3, 3-methoxy-5,6-bis(4-methoxyphenyl)-1,2,4-triazine] | 7
4 | CCc1nnc(-c2ccc(OC)cc2)c(-c2ccc(OC)cc2)n1 [C2 H5 -- 0 OCH3 OCH3, 3-ethyl-5,6-bis(4-methoxyphenyl)-1,2,4-triazine] | 4
5 | CCCCCCSc1nnc(-c2ccc(OC)cc2)c(-c2ccc(OC)cc2)n1 [C6 H13 S 1 OCH3 OCH3, 3-hexylthio-5,6-bis(4-methoxyphenyl)-1,2,4-triazine] | 37.4
6 | COc1ccc(-c2nnc(C)nc2-c2ccc(OC)cc2)cc1 [CH3 -- 0 OCH3 OCH3, 5,6-bis(4-methoxyphenyl)-3-methyl-1,2,4-triazine] | 2.4
7 | CCOc1nnc(-c2ccc(OC)cc2)c(-c2ccc(OC)cc2)n1 [C2 H5 O 1 OCH3 OCH3, 3-ethoxy-5,6-bis(4-methoxyphenyl)-1,2,4-triazine] | 3.1
8 | CCSc1nnc(-c2ccc(OC)cc2)c(-c2ccc(OC)cc2)n1 [C2 H5 S 1 OCH3 OCH3, 3-ethylthio-5,6-bis(4-methoxyphenyl)-1,2,4-triazine] | 21.3
9 | COc1ccc(-c2nnc(SC)nc2-c2ccc(OC)cc2)cc1 [CH3 S 1 OCH3 OCH3, 5,6-bis(4-methoxyphenyl)-3-methylthio-1,2,4-triazine] | 9
